Results from US6339078B1, “Methods of prevention and treatment of ischemic damage” (University of Florida Research Foundation, Inc., priority 1999, dated 2002).
“Also recorded” adds a separate entry of the source.

Legend:
[1] = tested on: ovariectomized rats, ischemia induced by middle cerebral artery occlusion (MCAO); test: Ischemic area in brain slices after MCAO, estrogen pretreatment; assay type: in vivo, rat; details: for reduction of ischemic area vs sham: Silastic tube 24 h prior to MCAO, sacrifice 24 h after MCAO
[2] = tested on: ovariectomized rats, ischemia induced by middle cerebral artery occlusion (MCAO); test: Ischemic lesion volume (TTC) after MCAO, post-treatment at 0.5-4 hours; assay type: in vivo, rat; details: iv 100 μg/kg HPCD-complexed plus Silastic pellet at 0.5, 1, 2, or 3 hours post-occlusion; 48 hours after MCAO
[3] = tested on: ovariectomized rats, ischemia induced by middle cerebral artery occlusion (MCAO); test: Ischemic area in brain slices after MCAO, estrogen post-treatment at 40 or 90 minutes; assay type: in vivo, rat; details: administered 90 minutes after MCAO
[4] = tested on: primary rat brain capillary endothelial cells (BCEC); test: BCEC mortality under combined anoxia and hypoglycemia (Trypan blue); details: 2 nM; 100 mg % hypoglycemia and anoxia 2 hours
Protocol: Cell media contained 200 mg % or 100 mg % glucose. Culture dishes containing BCEC were placed in either an incubator or a nitrogen filled chamber for two hours. Trypan blue staining was used to distinguish live cells from dead cells. Two cell countings at two different hemacytometer squares were averaged. Mean±SEM are depicted (n=8.12). *<0.05 vs. corresponding vehicle control.
Nitrogen gas was influxed to replace the oxygen inside the chamber. The chamber was sealed and placed in the incubator for four hours for nonhypoglycemic cultures and 2 hours for hypoglycemic cultures.
Cell mortality was counted using Trypan blue staining method. Cell death percentage was calculated as dead cell/alive cell×100%.
Statistical methods used included two-way analysis of variance, applied to determine the significance of the difference among the experimental groups. Kruskal-Wallis nonparametric analysis was used for data presented as percentage. […] P<0.05 was considered significant.

[5] = tested on: primary rat brain capillary endothelial cells (BCEC); test: BCEC mortality under hypoglycemia (Trypan blue); assay type: cell-based; details: 2 nM; normal glucose 200 mg %
Protocol: Hypoglycemia experiments were undertaken. […] The glucose concentration of the culture media was then adjusted from 20 mg % to 200 mg % by adding appropriate amount of D-(+)-glucose to the glucose-free media and monitored by Glucose and L-Lactate Analyzer (YSI model 2300 STAT plus, YSI, Inc., Yellow Springs, Ohio). The hypoglycemic cultures were maintained for 24 hours or 48 hours prior to staining with Trypan blue. Cell mortality was counted using Trypan blue staining method. Cell death percentage was calculated as dead cell/alive cell×100%. Statistical methods used included two-way analysis of variance, applied to determine the significance of the difference among the experimental groups. Kruskal-Wallis nonparametric analysis was used for data presented as percentage. […] P<0.05 was considered significant.

[6] = Blood levels after single subcutaneous bolus injection in corn oil (radioimmunoassay); assay type: in vivo, male Sprague-Dawley rats; details: 100 μg/kg sc in corn oil
Protocol: The drug was dissolved in corn oil at 100 μg/ml and the final dosage delivered was 100 μg/kg. […] Venous blood was collected into heparinized tubes, centrifuged and the plasma was collected and frozen. Levels of 17β-estradiol were determined using a commercially supplied radioimmunoassay kit.

Row | Compound | ischemic area, percent of cross-sectional area of brain sections evaluated ([1]; pretreatment 24 h prior to MCAO, 3 brain slices, sham 25.6±5.7%) | protective effect on ischemic area (in words) ([1]; tissue slices A-D, subcutaneous injection two hours prior to ischemic event) | protection, ischemic lesion volume (in words) [2] | reduction of ischemic area [3] | protection of BCEC (in words) [4] | difference in % cell death with and without estrogen (in words) [5] | blood level ([6]; 30 minutes after administration (peak)) | blood level ([6]; 4 hours) | blood level (in words) ([6]; by 25 hours) | reduction of ischemic area vs sham ([1]; slice C) | reduction of ischemic area vs sham ([1]; slice D) | reduction of ischemic area vs sham ([1]; slice E) | protective effect on ischemic area (in words) ([1]; tissue slices A-E, sustained subcutaneous delivery initiated 24 hours prior)
1 | C[C@]12CC[C@@H]3c4ccc(O)cc4CC[C@H]3[C@@H]1CC[C@@H]2O [17β-estradiol] | 9.8±4.0% | significant protective effect | significant protection | 31% | effective in protecting cultured BCEC | little difference | 4,610 pg/ml | 2,004 pg/ml | near zero |  |  |  | 
2 | C[C@]12CC[C@@H]3c4ccc(O)cc4CC[C@H]3[C@@H]1CC[C@H]2O [17α-estradiol] |  |  |  |  |  |  |  |  |  | 55% | 66% | 81% | significant protective effect; also recorded: smaller ischemic areas compared with the sham treated animals in all slices evaluated
